Test systems include SF-268 CNS; HT29 colon; HCT-116 colon; UO-31 renal; U251 CNS; KM12 colon; UACC-62 melanoma; NCI/ADR-RES ovarian; EKVX NSCLC; OVCAR-3 ovarian; HL-60(TB) leukemia.
Common to all, as to test: inhibition of tumour cell growth, NCI panel, 48 h

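Each compound was tested at five concentrations against cells in 96-well plates for 48 hours. Definition used: TGI = concentration required for complete inhibition of growth.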

`CCCC[Si](CCCC)(CCCC)O[C@@H](/C=C/C(=O)OCC)[C@H](Cc1ccccc1)O[Si](CCCC)(CCCC)CCCC`: the TGI with SF-268 CNS, in the assay on HT29 colon, in the assay on HCT-116 colon, in the assay with UO-31 renal, in the assay on U251 CNS and with KM12 colon was > 100 µM throughout. Moreover, the TGI with UACC-62 melanoma, in the assay with NCI/ADR-RES ovarian and in the assay with EKVX NSCLC was > 100 µM in each case.

As for `C/C(=C\[C@H]1C[C@@H]([C@@H]2CC[C@]34C[C@]23C=C[C@@H]2[C@@]3(C)CC=C5C[C@@H](c6ccccc6)OC[C@]5(C)[C@@H]3C[C@@H](O)[C@]24C)C(=O)O1)CO`, the TGI was > 70.1 µM in the assay on SF-268 CNS; > 100 µM with OVCAR-3 ovarian; 7.85 µM in the assay on HT29 colon; > 100 µM in the assay on HCT-116 colon; 9.54 µM in the assay with UO-31 renal; > 100 µM in the assay with U251 CNS. Further, the TGI was 15.3 µM in the assay with KM12 colon, > 71.2 µM with UACC-62 melanoma, > 100 µM in the assay with NCI/ADR-RES ovarian and > 52 µM in the assay with EKVX NSCLC.

In the case of `CC(C)=CCC/C(C)=C/CC/C(C)=C/CC/C(C=O)=C/CC/C(C)=C\CC/C(C)=C/CC/C(C)=C/CC/C(C)=C/CC1=CC(=O)C=CC1=O`, the TGI with SF-268 CNS, in the assay with OVCAR-3 ovarian, in the assay on HCT-116 colon, with UO-31 renal, in the assay with U251 CNS and in the assay on KM12 colon was > 100 µM each time. Moreover, the TGI in the assay on UACC-62 melanoma was 53.1 µM; in the assay on NCI/ADR-RES ovarian, > 100 µM; in the assay with EKVX NSCLC it was > 100 µM.

In the case of `N.N.N.N.O=S(=O)([O-])[O-].[Co+3].[OH3+].[OH3+]`, the TGI in the assay with HL-60(TB) leukemia, in the assay with SF-268 CNS, in the assay on OVCAR-3 ovarian, in the assay on HT29 colon, with HCT-116 colon and in the assay with UO-31 renal was > 100 µM throughout. The TGI with U251 CNS, with KM12 colon, in the assay with UACC-62 melanoma and in the assay on EKVX NSCLC was > 100 µM throughout.

For the compound `O=C1CCC2(c3ccc(F)cc3)Nc3ncncc3N12` (stereo not given), the TGI with SF-268 CNS, in the assay on OVCAR-3 ovarian, in the assay on HT29 colon, in the assay on UO-31 renal, with U251 CNS and with KM12 colon was > 10 µM throughout. Moreover, the TGI with UACC-62 melanoma, in the assay on NCI/ADR-RES ovarian and in the assay with EKVX NSCLC was > 10 µM in each case.

As for `COc1ccc(N=C2C(=Nc3ccc(OC)cc3)N(c3ccccc3[N+](=O)[O-])C(=S)N2c2ccc(OC)cc2)cc1`, the TGI with SF-268 CNS, with OVCAR-3 ovarian, with HCT-116 colon, in the assay on UO-31 renal, in the assay with U251 CNS and in the assay with KM12 colon was > 100 µM throughout. Further, the TGI with UACC-62 melanoma, in the assay with NCI/ADR-RES ovarian and in the assay with EKVX NSCLC was > 100 µM throughout.

As to `O=C1c2cccnc2-c2nccc3ccnc1c23`, the TGI amounted to 0.185 µM in the assay with HL-60(TB) leukemia; 6.58 µM with SF-268 CNS; 1.49 µM with OVCAR-3 ovarian; 2.09 µM in the assay on HT29 colon; 0.0784 µM in the assay with HCT-116 colon; 3.16 µM in the assay with UO-31 renal. Besides, the TGI is 3.49 µM in the assay on U251 CNS, 2.66 µM with KM12 colon, 1.88 µM in the assay on UACC-62 melanoma and 3.75 µM with EKVX NSCLC.

Take `CCC(/C=C/c1ccccc1)=N\N=C(\C=C\c1ccccc1)CC`: the TGI in the assay with HL-60(TB) leukemia, in the assay with SF-268 CNS, in the assay with OVCAR-3 ovarian, with HT29 colon, in the assay on HCT-116 colon and in the assay on UO-31 renal was > 100 µM throughout. Moreover, the TGI with U251 CNS, with KM12 colon, in the assay with UACC-62 melanoma and with EKVX NSCLC was > 100 µM each time.

On to `Cc1ccc2cccc(OC(=O)c3cc4c(cc3Cl)Sc3nccn3S4(=O)=O)c2n1`, for which the TGI in the assay on SF-268 CNS is > 100 µM; with OVCAR-3 ovarian, 11.6 µM; in the assay on HT29 colon it was 44.5 µM; with HCT-116 colon it was 18.9 µM; in the assay with UO-31 renal, 30.6 µM; with U251 CNS, 16.6 µM. The TGI with KM12 colon is 18.7 µM; in the assay with UACC-62 melanoma, 32.6 µM; in the assay with NCI/ADR-RES ovarian it was 46.2 µM; in the assay on EKVX NSCLC it was 48 µM.

For `Cc1c(C)c2ccc(O)cc2[nH]c1=O`, the TGI in the assay on OVCAR-3 ovarian, in the assay on HT29 colon, in the assay with HCT-116 colon, with UO-31 renal, with U251 CNS and with KM12 colon was > 100 µM throughout. Further, the TGI in the assay on UACC-62 melanoma, in the assay with NCI/ADR-RES ovarian and in the assay on EKVX NSCLC was > 100 µM each time.

On to `C=CCn1c(=S)sc2c(=O)[nH]cnc21`, for which the TGI with HL-60(TB) leukemia, with SF-268 CNS, in the assay with OVCAR-3 ovarian, with HT29 colon, in the assay on HCT-116 colon and in the assay on UO-31 renal was > 100 µM in each case. Further, the TGI in the assay on U251 CNS, with KM12 colon, in the assay with UACC-62 melanoma and in the assay with EKVX NSCLC was > 100 µM in each case.

In the case of `COc1ccc(C2S/C(=C\c3cccc([N+](=O)[O-])c3)C(=O)N2NC(=O)Cc2ccccc2)cc1` (stereo not given), the TGI in the assay with HL-60(TB) leukemia, with SF-268 CNS, with HT29 colon, in the assay with HCT-116 colon, in the assay with UO-31 renal and with U251 CNS was > 100 µM throughout. Moreover, the TGI in the assay on KM12 colon and with UACC-62 melanoma was > 100 µM in each case.

In the case of `O=C1CSc2ccncc2N1`, the TGI with HL-60(TB) leukemia, with SF-268 CNS, in the assay on OVCAR-3 ovarian, with HT29 colon, in the assay with HCT-116 colon and with UO-31 renal was > 100 µM in each case. Moreover, the TGI in the assay on U251 CNS, in the assay on UACC-62 melanoma and in the assay on EKVX NSCLC was > 100 µM in each case.

Take `O=C1C=Cc2c(I)sc(I)c21`: the TGI is 32.7 µM in the assay on SF-268 CNS; 39.7 µM with OVCAR-3 ovarian; 68.4 µM in the assay with HT29 colon; 33.1 µM in the assay on HCT-116 colon; 32.5 µM in the assay with UO-31 renal; 33.3 µM with U251 CNS. Besides, the TGI was 50 µM with KM12 colon, > 100 µM in the assay on UACC-62 melanoma, 67.7 µM with NCI/ADR-RES ovarian and 83.9 µM in the assay on EKVX NSCLC.

Consider `CCCN1CN(C(C(=O)N[C@@H]2C(=O)N3C(C(=O)O)=C(C)CSC23)c2ccccc2)CSC1=S` (stereo not given in full), for which the TGI with HL-60(TB) leukemia, in the assay on SF-268 CNS, with OVCAR-3 ovarian, in the assay with HT29 colon, in the assay with HCT-116 colon and with UO-31 renal was > 100 µM each time. The TGI in the assay with U251 CNS, in the assay with KM12 colon, in the assay with UACC-62 melanoma and in the assay on EKVX NSCLC was > 100 µM each time.

`Cc1ccc(OCCn2cc(Nc3ccccc3)c(=O)[nH]c2=O)cc1`: the TGI in the assay with SF-268 CNS, in the assay with OVCAR-3 ovarian, with HT29 colon, with HCT-116 colon, in the assay on UO-31 renal and with U251 CNS was > 100 µM each time. Further, the TGI in the assay with KM12 colon, in the assay on UACC-62 melanoma, in the assay on NCI/ADR-RES ovarian and in the assay with EKVX NSCLC was > 100 µM in each case.

As to `C=C1C(=O)O[C@H]2[C@H]3O[C@@H](C[C@@H]12)[C@](C)(O)CCCC(C)=CCC[C@H]3C`, the TGI with SF-268 CNS is 20.7 µM; in the assay with OVCAR-3 ovarian, 27.5 µM; in the assay with HT29 colon it was 26.7 µM; in the assay on HCT-116 colon, 31.1 µM; with UO-31 renal it was 23.5 µM; with U251 CNS, 29.8 µM. Moreover, the TGI in the assay on KM12 colon stood at 27.1 µM; in the assay with UACC-62 melanoma it was 22.8 µM; in the assay on NCI/ADR-RES ovarian, 22.7 µM; in the assay with EKVX NSCLC it was 22.4 µM.

As for `O=C(CN1CCCC1)Nc1ccc2sc3ccccc3c(=O)c2n1`, the TGI in the assay with SF-268 CNS was 85.9 µM; with OVCAR-3 ovarian, > 100 µM; in the assay with HT29 colon, > 100 µM; with HCT-116 colon, 68.3 µM; in the assay with UO-31 renal, 27.9 µM; in the assay with U251 CNS, 46.3 µM. Moreover, the TGI in the assay with KM12 colon is 44.2 µM; in the assay on UACC-62 melanoma it was 36.6 µM; in the assay on NCI/ADR-RES ovarian it was 54.5 µM; in the assay on EKVX NSCLC, > 100 µM.

Turning to `O=C1C(c2c(O)[nH]c3ccc(S(=O)(=O)N(CCO)CCO)cc23)=Nc2ccccc21`, the TGI with SF-268 CNS, with OVCAR-3 ovarian, in the assay with HT29 colon, in the assay with HCT-116 colon, in the assay with UO-31 renal and with U251 CNS was > 100 µM throughout. In addition, the TGI in the assay with KM12 colon, with UACC-62 melanoma, in the assay on NCI/ADR-RES ovarian and with EKVX NSCLC was > 100 µM in each case.

As to `Nc1nc(Cl)nc2c1ncn2C1CCC(CO)O1` (stereo not given), the TGI in the assay with OVCAR-3 ovarian, in the assay with HT29 colon, in the assay with HCT-116 colon, in the assay on UO-31 renal, with U251 CNS and with KM12 colon was > 100 µM in each case. Besides, the TGI with UACC-62 melanoma and in the assay with NCI/ADR-RES ovarian was > 100 µM throughout.

Values taken from PubChem BioAssay (NCI).
